Source: patent US7420051B2, “Synthetic process for the manufacture of an ecteinaschidin compound” (Pharma Mar, S.A., priority 2000, dated 2008)

Columns and labels:
Format in all cases: cell-based
[1] = test system: A-549 (monolayer culture of a human lung carcinoma); test: Cytotoxic activity screening, A-549 cells; conditions: Homo sapiens, A549, 72 h, three days of incubation, Crystal Violet, approximate IC50
Protocol: (§1) Cell Cultures. Cells were maintained in logarithmic phase of growth in Eagle's Minimum Essential Medium, with Earle's Balanced Salts, with 2.0 mM L-glutamine, with non-essential amino acids, without sodium bicarbonate (EMEM/neaa); supplemented with 10% Fetal Calf Serum (FCS), 10^−2 M sodium bicarbonate and 0.1 g/l penicillin-G+streptomycin sulfate.
(§2) A simple screening procedure has been carried out to determine and compare the antitumour activity of these compounds, using an adapted form of the method described by Bergeron et al (1984). The tumour cell line employed have been P-388 (suspension culture of a lymphoid neoplasm from DBA/2 mouse), A-549 (monolayer culture of a human lung carcinoma), HT-29 (monolayer culture of a human colon carcinoma) and MEL-28 (monolayer culture of a human melanoma).
(§3) A-549, HT-29 and MEL-28 were seeded into 16 mm wells at 2×10^4 cells per well in 1 ml aliquots of MEM 10FCS containing the indicated concentration of drug. A separate set of cultures without drug was seeded as control growth to ensure that cells remained in exponential phase of growth. All determinations were carried out in duplicate. After three days of incubation at 37° C., 10% CO2 in a 98% humid atmosphere, the wells were stained with 0.1% Crystal Violet. An approximately IC50 was determined by comparing the growth in wells with drug to the growth in wells control.

[2] = test system: MEL-28 (monolayer culture of a human melanoma); test: Cytotoxic activity screening, MEL-28 cells; conditions: SK-MEL-28, 72 h, three days of incubation, Crystal Violet, approximate IC50
Protocol: as §1, §2, §3

DU-145 = test: Cytotoxic activity screening, DU-145 cells; conditions: Homo sapiens, DU-145, DU-145 cells
[3] = test system: P-388 (suspension culture of a lymphoid neoplasm from DBA/2 mouse); test: Cytotoxic activity screening, P-388 cells; conditions: Mus musculus, P388, 72 h, three days of incubation, approximate IC50
Protocol: as §1, §2
P-388 cell were seeded into 16 mm wells at 1×10^4 cells per well in 1 ml aliquots of MEM 5FCS containing the indicated concentration of drug. A separate set of cultures without drug was seeded as control growth to ensure that cells remained in exponential phase of growth. All determinations were carried out in duplicate.

[4] = test system: HT-29 (monolayer culture of a human colon carcinoma); test: Cytotoxic activity screening, HT-29 cells; conditions: Homo sapiens, HT-29, 72 h, three days of incubation, Crystal Violet, approximate IC50
Protocol: as §1, §2, §3

CV-1 = test: Cytotoxic activity screening, CV-1 cells; conditions: Cercopithecidae

Measured: IC50

COc1c(C)cc2c(c1O)[C@@H]1C3Cc4c(O)c(C)c5c(c4[C@H](CN4C(=O)c6ccccc6C4=O)N3[C@@H](C#N)[C@H](C2)N1C)OCO5 (stereo partly drawn)
0.001 µM: all assays above
